Measured values from patent US20110039277A1, “Methods of Labeling Proteins” (priority 2008, published 2011).
Entries after “also recorded” stand apart in the source; their conditions may differ.

Experiments:
[1] = system: dopaminergic neurons of the substantia nigra; test: Histological labeling of oxidized thiols in substantia nigra of rotenone-treated rats; format: in vivo, Lewis rats; settings: chronic rotenone treatment vs control animal
Protocol: (§1) Histological labeling of oxidized thiols. Brains were fixed in 4% paraformaldehyde and processed as described (Betarbet, R.; Sherer, T. B.; MacKenzie, G.; Garcia-Osuna, M.; Panov, A. V.; Greenamyre, J. T. Chronic systemic pesticide exposure reproduces features of Parkinson's disease. Nat Neurosci 3:1301-1306; 2000). After cutting with a freezing microtome, sections were treated immediately in alkylating buffer (100 mM IAM, 100 mM NEM, TrisHCl, pH 6.8) to block free thiols. For cell culture studies, cells were seeded and cultured on coverslips, then fixed in 4% paraformaldehyde, 0.02% Triton-X100 supplemented with 100 mM IAM, 100 mM NEM to block free thiols. After three washes in PBS—10 minutes at room temperature—disulfides were reduced with 25 mM TCEP in PBS for 20 minutes. TCEP was omitted in the control reaction. The samples were labeled with CPM (0.5 mM final) in TrisHCl (0.1 M, pH 6.8) and then washed three times, for 10 minutes, in PBS.
Following the thiol labeling, immunohistochemistry was performed according to standard procedures. Briefly, after a blocking step in 10% serum, samples were incubated over-night with primary antibody (tyrosine hydroxylase, Mab318, Chemicon, Temecula, Calif., 1:2000; OX42, MCA 275G AbD Serotec, Oxford, UK, 1:150; GFAP, Mab 3402, Chemicon, Temecula, Calif., 1:1000). Fluorescently labeled secondary antibodies were used for detection. […]

transferrin = test: Reducing and non-reducing Western blots of transferrin in substantia nigra; format: in vivo; settings: chronic rotenone treatment vs control animal
Excerpt: In the lower panel, left and right, a loading control (39 kDa subunit of mitochondrial complex I) ensures that the initial amount of protein was the equal for all the lanes.

Hsp60 = test: FRET by acceptor photobleaching between FITC-NN carbonyl label and Cy3 anti-Hsp60 antibody in cells; format: cell-based; settings: rotenone-treated cells
Excerpt: Anti-Hsp60 (Stressgen, used at 1:500) was conjugated with Cy3. The procedure can be carried out in a 96-well plate, which can be analyzed with a micro-plate spectrofluorometer. FRET between FITC-NN and a Cy3-labeled specific antibody can be studied to determine if the two fluorophores are in close proximity (<50 Å) and therefore if the protein of interest is oxidized. […] First, the acceptor fluorophore is photobleached over four cycles. In FIG. 3, Cy3 was the acceptor fluorophore and the protein of interest was Hsp60, where Cy3 conjugated with anti-Hsp60 antibody. Second, the emission of the acceptor fluorophore and of the donor fluorophore are determined and compared. If a significant increase in the donor emission is observed after photobleaching the acceptor fluorophore, then the two fluorophores are determined to be in close proximity. […] Therefore, the two fluorophores are in close proximity and indicate that the protein of interest, here Hsp60, is oxidized.

[2] = system: mitochondrial proteins containing oxidized thiols; test: Thiol-sepharose affinity purification of oxidized mitochondrial proteins from brain regions of rotenone-treated rats; format: in vivo, Lewis rats; settings: rotenone animals vs control
Excerpt: Preparation of affinity resin. Activated thiol-sepharose resin 4B (Sigma, St. Louis, Mo., USA) was used in previous studies to purify thiol-containing proteins (Egorov, T. A.; Svenson, A.; Ryden, L.; Carlsson, J. A rapid and specific method for isolation of thiol-containing peptides from large proteins by thiol-disulfide exchange on a solid support. Proc Natl Acad Sci USA 72:3029-3033; 1975); the resin extent of binding was 1 micromol of thiols per mL of medium. The resin rehydrated in milliQ-grade distilled water, 30 minutes, gently shaking at 4° C. […]
In the first technique (FIG. 20), a starting sample (e.g., purified mitochondria from the ventral midbrain of control and rotenone-treated rats) is homogenized and then free thiols are alkylated. […] At this point, the sample can be run over a thiol affinity column and the eluate can be analyzed by SDS-PAGE and Coomassie staining. In an alternative strategy, after the reduction the sample can be reacted with ICAT (isotope coded affinity tag) reagents for mass spectrometry (Gygi, S P, Rist, B, Gerber, S A, Turecek, F, Gelb, M H and Aebersold, R, (1999) Quantitative analysis of complex protein mixtures using isotope-coded affinity tags. Nat Biotechnol 17: 994-9).

substantia nigra = test: Imaging of carbonyls in substantia nigra of rotenone-treated animals; format: in vivo; settings: rotenone-treated animal vs control animal
Excerpt: To detect carbonyls in fixed slices and perform microscopy studies, fluorescein-conjugated hydrazine is used (FITC-hydrazine, please see FIG. 19). As a positive control, carbonyl formation is induced by metal-catalyzed oxidation, treating the samples with iron (Fe^3+) and ascorbate (Amici, A, Levine, R L, Tsai, L and Stadtman, E R, (1989) Conversion of amino acid residues in proteins and amino acid homopolymers to carbonyl derivatives by metal-catalyzed oxidation reactions. J Biol Chem 264: 3341-6 and Halliwell, B and Gutteridge, J M, (1990) Role of free radicals and catalytic metal ions in human disease: an overview. Methods Enzymol 186: 1-85). In the confocal studies, a negative control can be performed preincubating the fixed slices with an excess of DNPH.
Protein carbonyls. Another oxidative modification of proteins is carbonyl formation. Typically, carbonyls are assayed by reacting protein homogenates with hydrazine compounds (e.g., dinitrophenylhydrazine; DNPH) and then measuring the reaction product spectrophotometrically, or with antibody-based techniques. We have used a fluorescent hydrazine compound to directly label carbonyls (FIG. 19). As with thiol labeling, this technique is amenable to FRET so that candidate proteins can be examined for carbonyl content and changes therein in pesticide intoxication.

dopaminergic neurons = test: Tyrosine hydroxylase, transferrin and oxidized thiol imaging in dopaminergic neurons treated with rotenone; format: cell-based; settings: cells treated with rotenone vs control
[3] = system: human neuroblastoma cells; test: Fluorescent labeling of protein carbonyls (FITC-hydrazide) in rotenone-treated cells; format: cell-based; settings: 50 nM rotenone, 24 hours, vs vehicle-treated cells
Protocol: Cells are fixed in cold methanol for 10 minutes at −20° C. Paraformaldehyde and other […] group-containing (and therefore carbonyl group-containing) fixatives should be avoided. The method can be successfully applied to tissues as well.
Carbonyls are labeled with fluorescein-conjugated hydrazide (FITC-NN, FIG. 1, Molecular Probes, cat #F-121). F121 is prepared fresh in dimethyl-formamide. As the reaction between the hydrazine and the carbonyls occurs in acidic environment, the labeling is carried out in 50 mM sodium acetate (pH 4). FITC-NN is used 2 microM final; incubation is carried on 2 hours at room temperature.
Samples are washed in phosphate buffer solution (PBS) for 5 minutes; this step is repeated three times.
From this step onward, a classical immunohistochemistry staining can be performed to detect proteins of interest.
Images are acquired with a laser scanning confocal microscope.

thioredoxin-1 (trx-1) [4] = test: FRET between thiol-bound CPM and Alexa488-labeled trx-1 antibody in cells; format: cell-based; settings: tBH-treated cells vs baseline
Protocol: as §1, with “The samples were labeled with CPM (0.5 mM final) in TrisHCl (0.1 M, pH 6.8) and then washed three times, for 10 minutes, in PBS.” left out
Direct FRET was detected by reading the acceptor emission (FITC derivative conjugated antibody) at 520 nm while exciting the donor (CPM) with the 405 nm laser. Alternatively, FRET was detected by acquiring the donor (CPM) emission before and after photobleaching of the acceptor fluorophore (Alexa488) with the 488 nm laser. FRET efficiency (Feff) was calculated by the confocal software (version 1.5) according to the equation Feff=1−(empre/empost), where Feff=FRET efficiency, empre=donor emission prebleaching, empost=donor emission post bleaching.

thioredoxin-1 (trx-1) [5] = test: Redox western blot (10 kDa PEG-maleimide) of thioredoxin-1 in cells; format: cell-based; settings: low millimolar concentrations of tBH
Protocol: Western blot analysis to detect proteins with oxidized cysteines. Cells were lysed in alkylating buffer (0.1M TrisHCl pH 6.8, 1% SDS, 100 mM IAM, 100 mM NEM). The lysate was sonicated on ice to disrupt high molecular weight DNA and incubated 30 minutes at room temperature to allow total alkylation of free Cys residues. 200 μg of alkylated proteins were precipitated with 5 volumes of ice-cold acetone and resuspended in 50 microliters of Tris-SDS buffer (0.1M TrisHCl, pH 7.4, 1% SDS). Disulfides were reduced by adding TCEP 5 mM final concentration. The samples were incubated 20 minutes at room temperature to allow complete reduction of disulfides to thiols. TCEP was removed with Micro Bio-spin Chromatography columns 6 (BIORAD, Hercules, Calif.). After the filtration step, the samples were in about 50 μL of 10 mM TrisHCl pH 7.4 (volume was adjusted to 50 μL as necessary). SDS was added to a 1% final concentration.
To label the previously oxidized (and now reduced) cysteines, polyethylene-glycol-conjugated maleimide (molecular weight 10 kDa, SunBio, Orinda, Calif.) was added to 50 micrograms of proteins, 1 mM final concentration, from a 10 mM stock in Tris-SDS buffer. After 1 hour incubation at room temperature, samples were precipitated with ice cold acetone and resuspended in 50 μL of SDS electrophoresis loading buffer. 10 μL (about 10 μg) were used for western blot analysis. […]

[6] = system: SH-SY5Y human neuroblastoma cells; test: Histochemical detection of oxidized thiols (disulfides) with CPM in cells; format: cell-based; settings: tBH 1 mM vs vehicle control
Protocol: as §1
Images were acquired using a laser scanning confocal microscope. The microscope was equipped with a spectral detector technology that provides precise wavelength separation of the emitted light, preventing light leakage between different fluorophores. The following detection ranges were used for each fluorophore: 450 nm-480 nm for UV probes; 515 nm-535 nm for Alexa488; 560 nm-574 nm for Cy3. […]

Row | SMILES | oxidized thiols in nigrostriatal dopaminergic (TH-positive) neurons [1] | oxidized transferrin form in non-reducing gel (transferrin) | FITC (donor) emission after photobleaching of Cy3 acceptor; indicates Hsp60 is oxidized (Hsp60) | oxidized mitochondrial proteins eluted from thiol affinity chromatography, striatum ([2]; striata) | oxidized mitochondrial proteins eluted from thiol affinity chromatography, substantia nigra ([2]; substantia nigra (ventral midbrain)) | carbonyls in substantia nigra (substantia nigra) | transferrin (trf) level, colocalized with oxidized thiols by FRET (dopaminergic neurons) | carbonyls (green fluorescence) [3] | FRET between CPM and Alexa488 trx-1 antibody (thiol oxidation of Trx-1) (thioredoxin-1 (trx-1) [4]) | thiol oxidation (disulfide formation) in trx-1 by redox western blot (thioredoxin-1 (trx-1) [5]) | oxidized thiols (disulfides) labeling [6]
1 | C=C(C)[C@H]1Cc2c(ccc3c2O[C@@H]2COc4cc(OC)c(OC)cc4[C@@H]2C3=O)O1 [rotenone] | remarkable and very selective increase in oxidized thiols; also recorded: marked increase in oxidized thiols | higher molecular weight form | significant increase in FITC emission | No major differences | marked increase in thiol oxidation; also recorded: dramatic increase in oxidized proteins; also recorded: striking increase of oxidized proteins | marked increase in carbonyls | accumulation of transferrin | detectable increase; also recorded: large increase in carbonyls |  |  | 
2 | CC(C)(C)OO [tBH, tert-butyl-hydroperoxide] |  |  |  |  |  |  |  |  | clear increase in the signal; also recorded: marked increase in direct FRET | quickly induced the formation of disulfides in trx-1; also recorded: induced thiol oxidation in thioredoxin-1 | remarkable increase in disulfides; also recorded: dramatic increase of thiol labeling
